Broadly, the pIC50 is −log10 of the IC50, conventionally taken in molar units.

Molecules are shown by their SMILES. pIC50: −log10 of the molar value. A value given as a limit tells only on which side of the number the result lay.

In this experiment the target is TNFα (Homo sapiens, UniProt P01375). The experiment can be described thus: HEK-Blue hTNFα reporter assay. It is filed as cell-based. Further details: purchased R&D biosystem (R&D Systems) 210-TA-020/CF. As to conditions: HEK-Blue hTNFα reporter cells, SEAP readout; read-out: IC50 Range. The gist of the method: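 Compounds preincubated 1 h at 37 °C with recombinant hTNFα ([…]), then added to HEK293 NF-κB-SEAP reporter cells, 10000 cells/well, 24 h at 37 °C. SEAP read by QUANTI-Blue at OD620; % inhibition versus stimulated and unstimulated controls, IC50 by 4-parameter fit.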
Chain of TNFα (P01375 77-233 limits assumed): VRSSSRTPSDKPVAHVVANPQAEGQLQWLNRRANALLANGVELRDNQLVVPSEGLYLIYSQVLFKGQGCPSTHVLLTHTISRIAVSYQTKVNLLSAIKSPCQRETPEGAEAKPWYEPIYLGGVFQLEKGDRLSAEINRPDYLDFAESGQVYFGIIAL
As for `[2H]C([2H])([2H])N1C(=O)c2cccc(OC(F)F)c2[C@H]2C[C@@H]1c1nn3cnc(-c4cnc([C@]5(O)C[C@@](C)(N)C5)nc4)cc3c12` [Example 261], the pIC50 was 7.00 to 7.60. As for `[2H]C([2H])([2H])N1C(=O)c2cccc(OC(F)F)c2[C@H]2C[C@@H]1c1nn3cnc(-c4cnc(C5(N)CCC5)nc4)cc3c12` [Example 262], the pIC50 is more than 7.60.

Regarding `[2H]C([2H])([2H])N1C(=O)c2cccc(OC(F)F)c2[C@H]2C[C@@H]1c1nn3cnc(-c4cnc([C@]5(N)C[C@@](C)(O)C5)nc4C)cc3c12` [Example 263], the pIC50 was more than 7.60. Then `[2H]C([2H])([2H])N1C(=O)c2cccc(OC(F)F)c2[C@H]2C[C@@H]1c1nn3ccc(-c4cnc([C@](C)(N)CC#N)nc4)cc3c12` [Example 264], with more than 7.60.

`[2H]C([2H])([2H])N1C(=O)c2cccc(OC(F)F)c2[C@H]2C[C@@H]1c1nn3ccc(-c4cnc([C@@](C)(N)CC#N)nc4)cc3c12` [Example 265]: the pIC50 is more than 7.60. As to `[2H]C([2H])([2H])N1C(=O)c2cccc(OC(F)F)c2[C@H]2C[C@@H]1c1nn3ccc(-c4cnc(C5(N)CC5)cn4)cc3c12` [Example 266], the pIC50 was more than 7.60. The same measure for `[2H]C([2H])([2H])N1C(=O)c2cccc(OC(F)F)c2[C@H]2C[C@@H]1c1nn3cc(F)c(-c4cnc([C@]5(N)C[C@@](C)(O)C5)nc4)cc3c12` [Example 267]: more than 7.60. On to `[2H]C([2H])([2H])N1C(=O)c2cccc(OC(F)F)c2[C@H]2C[C@@H]1c1nn3cc(F)c(-c4cnc([C@]5(N)C[C@@](C)(CO)C5)c(F)c4)nc3c12` [Example 268], for which the negative-log IC50 (pIC50) is more than 7.60.

`[2H]C([2H])([2H])N1C(=O)c2cccc(OC(F)F)c2[C@H]2C[C@@H]1c1nn3ccc(-c4cnc([C@]5(N)C[C@@](C)(CO)C5)nc4)cc3c12` [Example 269]: the pIC50 was more than 7.60. In the case of `[2H]C([2H])([2H])N1C(=O)c2cccc(OC(F)F)c2[C@H]2C[C@@H]1c1nn3cc(F)c(-c4cnc([C@]5(N)C[C@@](C)(CO)C5)nc4)cc3c12` [Example 270], the negative-log IC50 (pIC50) is more than 7.60. For `[2H]C([2H])([2H])N1C(=O)c2cccc(OC(F)F)c2[C@H]2C[C@@H]1c1nn3ccc(-c4cnc([C@]5(O)C[C@@](C)(C#N)C5)nc4)nc3c12` [Example 271], the negative logarithm of the IC50 (pIC50) is more than 7.60. Regarding `[2H]C([2H])([2H])N1C(=O)c2cccc(OC(F)F)c2[C@H]2C[C@@H]1c1nn3ccc(-c4cnc([C@]5(O)C[C@](C)(C#N)C5)nc4)nc3c12` [Example 272], the negative logarithm of the IC50 (pIC50) was more than 7.60. As for `[2H]C([2H])([2H])N1C(=O)c2cccc(OC(F)F)c2[C@H]2C[C@@H]1c1nn3cnc(-c4cnc([C@]5(O)C[C@](C)(C#N)C5)nc4)cc3c12` [Example 273], the negative-log IC50 (pIC50) is more than 7.60. As to `[2H]C([2H])([2H])N1C(=O)c2cccc(OC(F)F)c2[C@H]2C[C@@H]1c1nn3cc(F)c(-c4cnc([C@]5(N)C[C@@](C)(CO)C5)nc4)nc3c12` [Example 274], the negative logarithm of the IC50 (pIC50) is more than 7.60. As to `Cc1nc(C2(N)CCC2)ncc1-c1ccn2nc3c(c2n1)[C@@H]1C[C@H]3NC(=O)c2cccc(OC(F)F)c21` [Example 275], the negative logarithm of the IC50 (pIC50) was more than 7.60. For `[2H]C([2H])([2H])N1C(=O)c2cccc(OC(F)F)c2[C@H]2C[C@@H]1c1nn3ccc(-c4cnc([C@@H](N)C5CC5)nc4)nc3c12` [Example 276], the pIC50 is 7.00 to 7.60. On to `[2H]C([2H])([2H])N1C(=O)c2cccc(OC(F)F)c2[C@H]2C[C@@H]1c1nn3ccc(-c4cnc([C@H](N)C5CC5)nc4)nc3c12` [Example 277], for which the negative-log IC50 (pIC50) is more than 7.60. `[2H]C([2H])([2H])N1C(=O)c2cccc(OC(F)F)c2[C@H]2C[C@@H]1c1nn3ccc(-c4cnc(C5(O)CN(C)C5)nc4)cc3c12` [Example 278]: the negative-log IC50 (pIC50) was more than 7.60.

Turning to `[2H]C([2H])([2H])N1C(=O)c2cccc(OC(F)F)c2[C@H]2C[C@@H]1c1nn3ccc(-c4cnc([C@]5(C#N)C[C@@](C)(N)C5)nc4)cc3c12` [Example 279], the pIC50 was more than 7.60.

Regarding `[2H]C([2H])([2H])N1C(=O)c2cccc(OC(F)F)c2[C@H]2C[C@@H]1c1nn3ccc(-c4cnc([C@]5(C#N)C[C@](C)(N)C5)nc4)cc3c12` [Example 280], the negative logarithm of the IC50 (pIC50) is more than 7.60. The same measure for `[2H]C([2H])([2H])N1C(=O)c2cccc(OC(F)F)c2[C@H]2C[C@@H]1c1nn3ccc(-c4cnc([C@]5(N)C[C@@](C)(O)C5)nc4C)cc3c12` [Example 281]: more than 7.60; for `[2H]C([2H])([2H])N1C(=O)c2ccc(F)c(OC(F)F)c2[C@H]2C[C@@H]1c1nn3ccc(-c4cnc(C5(N)CCC5)nc4)nc3c12` [Example 282]: more than 7.60; for `O=C1N[C@@H]2C[C@H](c3c(OC(F)F)cccc31)c1c2nn2ccc(C3=CCN(C(=O)O[C@H]4C[C@@H](O)C4)CC3)cc12` [Example 283]: more than 7.60. For the compound `[2H]C([2H])([2H])N1C(=O)c2cccc(OC(F)F)c2[C@H]2C[C@@H]1c1nn3cc(F)c(-c4cnc([C@]5(O)C[C@@](C)(N)C5)nc4)cc3c12` [Example 284], the negative logarithm of the IC50 (pIC50) was more than 7.60. With `[2H]C([2H])([2H])N1C(=O)c2cccc(OC(F)F)c2[C@H]2C[C@@H]1c1nn3ccc(-c4cnc([C@]5(N)C[C@@](C)(O)C5)nc4C)nc3c12` [Example 285], the pIC50 is more than 7.60. Take `[2H]C([2H])([2H])N1C(=O)c2cccc(OC(F)F)c2[C@H]2C[C@@H]1c1nn3ccc(-c4cnc(C(C)(C)N)nc4)nc3c12` [Example 286]: the negative-log IC50 (pIC50) is more than 7.60.

For `[2H]C([2H])([2H])N1C(=O)c2cccc(OC(F)F)c2[C@H]2C[C@@H]1c1nn3cc(F)c(-c4cnc(C(C)(C)N)nc4)nc3c12` [Example 287], the pIC50 is more than 7.60.

Turning to `[2H]C([2H])([2H])N1C(=O)c2ccc(F)c(OC(F)F)c2[C@H]2C[C@@H]1c1nn3ccc(-c4cnc([C@]5(N)C[C@@](C)(O)C5)nc4)nc3c12` [Example 288], the pIC50 was more than 7.60. In the case of `[2H]C([2H])([2H])N1C(=O)c2ccc(F)c(OC(F)F)c2[C@H]2C[C@@H]1c1nn3ccc(-c4cnc([C@]5(N)C[C@@](C)(O)C5)c(F)c4)nc3c12` [Example 289], the pIC50 was more than 7.60. As for `[2H]C([2H])([2H])N1C(=O)c2cccc(OC(F)F)c2[C@H]2C[C@@H]1c1nn3cc(F)c(-c4cnc([C@]5(N)C[C@H](C#N)C5)nc4)cc3c12` [Example 290], the pIC50 was more than 7.60. As to `[2H]C([2H])([2H])N1C(=O)c2cccc(OC(F)F)c2[C@H]2C[C@@H]1c1nn3ccc(-c4cnc(N5CC(C)(N)C5)nc4)cc3c12` [Example 291], the pIC50 is more than 7.60.

Take `[2H]C([2H])([2H])N1C(=O)c2cccc(OC(F)F)c2[C@H]2C[C@@H]1c1nn3ccc(-c4cnc([C@]5(C#N)C[C@@](C)(N)C5)c(F)c4)cc3c12` [Example 292]: the negative logarithm of the IC50 (pIC50) was more than 7.60. For the compound `[2H]C([2H])([2H])N1C(=O)c2cccc(OC(F)F)c2[C@H]2C[C@@H]1c1nn3ccc(-c4cnc([C@]5(C#N)C[C@](C)(N)C5)c(F)c4)cc3c12` [Example 293], the pIC50 was more than 7.60. Then `[2H]C([2H])([2H])N1C(=O)c2cccc(OC(F)F)c2[C@H]2C[C@@H]1c1nn3cc(F)c(-c4cnc(C(C)(C)N)nc4)cc3c12` [Example 294], with more than 7.60; and `CN1C(=O)c2cccc(OC(F)F)c2[C@H]2C[C@@H]1c1nn3ccc(-c4cnc(C(C)(C)N)nc4)nc3c12` [Example 295], with more than 7.60; and `[2H]C([2H])([2H])N1C(=O)c2cccc(OC(F)F)c2[C@H]2C[C@@H]1c1nn3cc(C)c(-c4cnc(C(C)(C)N)nc4)nc3c12` [Example 296], with more than 7.60. Turning to `[2H]C([2H])([2H])N1C(=O)c2ccc(F)c(OC(F)F)c2[C@H]2C[C@@H]1c1nn3ccc(-c4cnc(C(C)(C)N)nc4)nc3c12` [Example 297], the pIC50 is more than 7.60. Turning to `[2H]C([2H])([2H])N1C(=O)c2cccc(OC(F)F)c2[C@H]2C[C@@H]1c1nn3cnc(-c4cnc(C(C)(C)N)nc4)cc3c12` [Example 298], the negative logarithm of the IC50 (pIC50) was more than 7.60.

For the compound `CN1C(=O)c2cccc(C(F)F)c2[C@H]2C[C@@H]1c1nn3ccc(-c4cnc(C5(N)CCC5)nc4)cc3c12` [Example 299], the pIC50 is more than 7.60. Take `[2H]C([2H])([2H])N1C(=O)c2cccc(OC(F)F)c2[C@H]2C[C@@H]1c1nn3cc(C)c(-c4cnc(C(C)(C)N)nc4)cc3c12` [Example 300]: the pIC50 was more than 7.60. Then `[2H]C([2H])([2H])N1C(=O)c2cccc(C#N)c2[C@H]2C[C@@H]1c1nn3ccc(-c4cnc([C@]5(N)C[C@@](C)(C#N)C5)nc4)nc3c12` [Example 301, (7R,14R)-12-(2-((1s,3S)-1-amino-3-cyano-3-methylcyclobutyl)pyrimidin-5-yl)-6-(methyl-d3)-5-oxo-5,6,7,14-tetrahydro-7,14-methanobenzo[c]pyrimido[1′,2′:1,5]pyrazolo[4,3-f]azocine-1-carbonitrile], with more than 7.60; and `[2H]C([2H])([2H])N1C(=O)c2cccc(C)c2[C@H]2C[C@@H]1c1nn3ccc(-c4cnc(C5(N)CCC5)nc4)cc3c12` [Example 302, (7R,14R)-12-(2-(1-aminocyclobutyl)pyrimidin-5-yl)-1-methyl-6-(methyl-d3)-6,7-dihydro-7,14-methanobenzo[c]pyrido[1′,2′:1,5]pyrazolo[4,3-f]azocin-5 (14H)-one], with 7.00 to 7.60; and `CN1C(=O)c2cccc(C#N)c2[C@H]2C[C@@H]1c1nn3ccc(-c4ccc(P(C)(C)=O)nc4)cc3c12` [Example 303], with more than 7.60. Take `CN1C(=O)c2cccc(C3CC3)c2[C@H]2C[C@@H]1c1nn3ccc(-c4ccc(P(C)(C)=O)nc4)cc3c12` [Example 304]: the pIC50 was more than 7.60.

In the case of `C#Cc1cccc2c1[C@H]1C[C@H](c3nn4ccc(-c5cnc([C@]6(O)C[C@@](C)(O)C6)nc5)cc4c31)N(C)C2=O` [Example 305], the pIC50 was more than 7.60. Then `[2H]C([2H])([2H])N1C(=O)c2cccc(C#N)c2[C@H]2C[C@@H]1c1nn3ccc(-c4cnc(C5(N)CCC5)nc4)cc3c12` [Example 306], with more than 7.60.

(Values after patent publication US12410179B2, “Modulators of TNF alpha activity and uses thereof” (RayThera, Inc., priority 2023, dated 2025).)
